Values of other authors, collected in patent publication US20210000933A1, “TUMOR VACCINE” (CELL-MEDICINE, INC., priority 2019, published 2021).
Like-named read-outs stand apart in the source and are kept apart here.

Columns and labels:
[1] = tested on: brain tumor
[2] = tested on: newly diagnosed glioblastoma; conditions: bevacizumab used together with the standard therapy
[3] = 22 brain tumor cases, PDT then standard therapy
[4] = newly diagnosed glioblastoma cases (13 cases)

| Molecule | Side reactions ([1]; 22 brain tumor cases) | 6-month progression-free survival rate [1, 3] | 12-month postoperative overall survival rate [1, 3] | mOS ([1]; glioblastoma cases) | mPFS ([1]; glioblastoma cases) | 6-month progression-free survival rate [1, 4] | 12-month postoperative overall survival rate [1, 4] | mOS [2] | mPFS [2] |
| --- | --- | --- | --- | --- | --- | --- | --- | --- | --- |
| C=Cc1c(C)c2cc3nc(c(CC(=O)N[C@@H](CC(=O)O)C(=O)O)c4[nH]c(cc5nc(cc1[nH]2)C(C)=C5CC)c(C)c4C(=O)O)[C@@H](CCC(=O)O)[C@@H]3C [talaporphin sodium, talaporfin sodium] | observed for only four cases, and all of them were mild | 91% | 95.5% | 24.8 months | 12.0 months | 100% | 100% |  |  |
| bevacizumab: antibody drug having a tumor neovascularization inhibitory effect |  |  |  |  |  |  |  | 15.7 to 16.8 months | 10.6 to 10.7 months |
